In ChEMBL document CHEMBL1121590, “Synthesis and enzymatic and inotropic activity of some new 8-substituted and 6,8-disubstituted derivatives of adenosine cyclic 3',5'-monophosphate” (J Med Chem, 1980) one finds Hydrolysis and I50 data, which are given here for 41 compounds.

Some results are limits rather than exact numbers.

One experiment has as its target Phosphodiesterase 4 (Homo sapiens, UniProt P27815+Q08499+Q07343+Q08493). Conditions: Oryctolagus cuniculus; Kidney.
Experiment [1] in a line: Inhibition of cAMP phosphodiesterase preparation from rabbit lung at a substrate concentration of 0.14 uM.

Description for Phosphodiesterase 4: Susceptibility to be hydrolysed by a partially purified cAMP phosphodiesterase from rabbit kidney

The compound `CCCCNc1ncnc2c1nc(SC)n2[C@@H]1O[C@@H]2COP(=O)(O)O[C@H]2[C@H]1O` had a Hydrolysis on Phosphodiesterase 4 of 0.26. In experiment [1], this compound showed an I50 of 53 µM.

`CCCCN(C)c1ncnc2c1nc(SCc1ccccc1)n2[C@@H]1O[C@@H]2COP(=O)(O)O[C@H]2[C@H]1O`: the Hydrolysis at Phosphodiesterase 4 is below 0.05.

For `CCNc1ncnc2c1ncn2[C@@H]1O[C@@H]2COP(=O)(O)O[C@H]2[C@H]1O`, on Phosphodiesterase 4, the Hydrolysis was found to be 0.2. The compound further gave an I50 in experiment [1] of 400 µM.

Compound `Nc1ncnc2c1nc(Sc1ccc(Br)cc1)n2[C@@H]1O[C@@H]2COP(=O)(O)O[C@H]2[C@H]1O` gave a Hydrolysis on Phosphodiesterase 4 below 0.05. Further, the I50 in experiment [1] was determined as 240 µM.

Compound `Nc1ncnc2c1nc(SCCO)n2[C@@H]1O[C@@H]2COP(=O)(O)O[C@H]2[C@H]1O` yielded a Hydrolysis at Phosphodiesterase 4 below 0.05. For the same compound, the I50 in experiment [1] is 20 µM.

`CCCSc1nc2c(N)ncnc2n1[C@@H]1O[C@@H]2COP(=O)(O)O[C@H]2[C@H]1O` gave a Hydrolysis at Phosphodiesterase 4 below 0.05. Also, in experiment [1], the I50 amounted to 37 µM.

As for `O=P1(O)OC[C@H]2O[C@@H](n3c(SCc4ccccc4)nc4c(NCc5ccccc5)ncnc43)[C@H](O)[C@@H]2O1`, the Hydrolysis on Phosphodiesterase 4 was below 0.05. This compound had an I50 in experiment [1] of 29 µM.

`CCCCNc1ncnc2c1nc(Sc1ccc(Cl)cc1)n2[C@@H]1O[C@@H]2COP(=O)(O)O[C@H]2[C@H]1O` displayed a Hydrolysis on Phosphodiesterase 4 below 0.05.

In the case of `O=P1(O)OC[C@H]2O[C@@H](n3c(Sc4ccc(Cl)cc4)nc4c(N5CCCCC5)ncnc43)[C@H](O)[C@@H]2O1`, the Hydrolysis on Phosphodiesterase 4 is below 0.05. This compound also gave an I50 in experiment [1] of 10 µM.

The compound `C=CCSc1nc2c(N)ncnc2n1[C@@H]1O[C@@H]2COP(=O)(O)O[C@H]2[C@H]1O` gave a Hydrolysis on Phosphodiesterase 4 below 0.05. Further, the I50 in experiment [1] came to 29 µM.

`CNc1ncnc2c1ncn2[C@@H]1O[C@@H]2COP(=O)(O)O[C@H]2[C@H]1O` registered a Hydrolysis on Phosphodiesterase 4 of 0.22. For the same compound, the I50 in experiment [1] worked out at 50 µM.

At Phosphodiesterase 4, `Nc1ncnc2c1nc(N)n2[C@@H]1O[C@@H]2COP(=O)(O)O[C@H]2[C@H]1O` returned a Hydrolysis of 0.8. The I50 in experiment [1] was determined as 83 µM.

On to `CC(C)CNc1ncnc2c1nc(Sc1ccc(Cl)cc1)n2[C@@H]1O[C@@H]2COP(=O)(O)O[C@H]2[C@H]1O`, for which the Hydrolysis on Phosphodiesterase 4 is below 0.05. The compound also gave an I50 in experiment [1] of 1.2 µM.

For the compound `O=P1(O)OC[C@H]2O[C@@H](n3c(SCc4ccccc4)nc4c(N5CCCCC5)ncnc43)[C@H](O)[C@@H]2O1`, the Hydrolysis on Phosphodiesterase 4 is below 0.05. Further, the I50 in experiment [1] was found to be 4.8 µM.

At Phosphodiesterase 4, `Nc1ncnc2c1nc(SCc1cccnc1)n2[C@@H]1O[C@@H]2COP(=O)(O)O[C@H]2[C@H]1O` gave a Hydrolysis below 0.05. Besides, the I50 in experiment [1] was 100 µM.

For `COc1ccc(CSc2nc3c(N)ncnc3n2[C@@H]2O[C@@H]3COP(=O)(O)O[C@H]3[C@H]2O)cc1`, on Phosphodiesterase 4, the Hydrolysis is below 0.05. In addition, the I50 in experiment [1] amounted to 30 µM.

As for `CC(C)CCNc1ncnc2c1nc(SCc1ccccc1)n2[C@@H]1O[C@@H]2COP(=O)(O)O[C@H]2[C@H]1O`, the Hydrolysis at Phosphodiesterase 4 was below 0.05. Besides, the I50 in experiment [1] came to 2 µM.

In the case of `O=P1(O)OC[C@H]2O[C@@H](n3cnc4c(=S)[nH]cnc43)[C@H](O)[C@@H]2O1`, the Hydrolysis at Phosphodiesterase 4 worked out at 1.1. In experiment [1], this compound returned an I50 of 53 µM.

The compound `Nc1nc2c(=S)[nH]cnc2n1[C@@H]1O[C@@H]2COP(=O)(O)O[C@H]2[C@H]1O` gave a Hydrolysis on Phosphodiesterase 4 of 0.3. This compound also gave an I50 in experiment [1] of 83 µM.

For `Cc1ccccc1CSc1nc2c(N)ncnc2n1[C@@H]1O[C@@H]2COP(=O)(O)O[C@H]2[C@H]1O`, the Hydrolysis at Phosphodiesterase 4 was below 0.05. Further, in experiment [1], the I50 worked out at 33 µM.

In the case of `Nc1ncnc2c1nc(SC1CCCCC1)n2[C@@H]1O[C@@H]2COP(=O)(O)O[C@H]2[C@H]1O`, the Hydrolysis at Phosphodiesterase 4 is below 0.05. In addition, in experiment [1], the I50 amounted to 13 µM.

Regarding `CSc1nc2c(N)ncnc2n1[C@@H]1O[C@@H]2COP(=O)(O)O[C@H]2[C@H]1O`, the Hydrolysis at Phosphodiesterase 4 was below 0.05. In experiment [1], the I50 is 69 µM.

For the compound `Nc1ncnc2c1nc(Cl)n2[C@@H]1O[C@@H]2COP(=O)(O)O[C@H]2[C@H]1O` [TOCLADESINE], the Hydrolysis at Phosphodiesterase 4 was below 0.05. Further, in experiment [1], the I50 came to 59 µM.

Consider `Cc1ccccc1Sc1nc2c(N)ncnc2n1[C@@H]1O[C@@H]2COP(=O)(O)O[C@H]2[C@H]1O`, for which the Hydrolysis at Phosphodiesterase 4 was below 0.05. The same compound registered an I50 in experiment [1] of 29 µM.

The compound `CCN(CC)c1ncnc2c1nc(N(CC)CC)n2[C@@H]1O[C@@H]2COP(=O)(O)O[C@H]2[C@H]1O` yielded a Hydrolysis on Phosphodiesterase 4 below 0.05. For the same compound, the I50 in experiment [1] amounted to 13 µM.

Consider `CCSc1nc2c(N)ncnc2n1[C@@H]1O[C@@H]2COP(=O)(O)O[C@H]2[C@H]1O`, for which the Hydrolysis on Phosphodiesterase 4 was below 0.05. The compound also had an I50 in experiment [1] of 33 µM.

On to `CCN(CC)c1ncnc2c1nc(Sc1ccc(Cl)cc1)n2[C@@H]1O[C@@H]2COP(=O)(O)O[C@H]2[C@H]1O`, for which the Hydrolysis on Phosphodiesterase 4 was below 0.05. The I50 in experiment [1] was found to be 3.5 µM.

Compound `CCCCNc1ncnc2c1nc(Br)n2[C@@H]1O[C@@H]2COP(=O)(O)O[C@H]2[C@H]1O` registered a Hydrolysis at Phosphodiesterase 4 below 0.05.

In the case of `CCN(CC)c1ncnc2c1nc(Cl)n2[C@@H]1O[C@@H]2COP(=O)(O)O[C@H]2[C@H]1O`, at Phosphodiesterase 4, the Hydrolysis worked out at 0.1. In addition, the I50 in experiment [1] is 18 µM.

On Phosphodiesterase 4, `Nc1ncnc2c1nc(SCc1ccc(Cl)cc1)n2[C@@H]1O[C@@H]2COP(=O)(O)O[C@H]2[C@H]1O` gave a Hydrolysis below 0.05. In experiment [1], this compound had an I50 of 11 µM.

`O=P1(O)OC[C@H]2O[C@@H](n3c(Sc4ccc(Cl)cc4)nc4c(Nc5ccccc5)ncnc43)[C@H](O)[C@@H]2O1` yielded a Hydrolysis at Phosphodiesterase 4 below 0.05. For the same compound, in experiment [1], the I50 amounted to 36 µM.

The compound `O=P1(O)OC[C@H]2O[C@@H](n3c(SCc4ccccc4)nc4c(SCc5ccccc5)ncnc43)[C@H](O)[C@@H]2O1` came in with a Hydrolysis at Phosphodiesterase 4 below 0.05. Further, the I50 in experiment [1] is 4.6 µM.

`O=P1(O)OC[C@H]2O[C@@H](n3c(Br)nc4c(NCc5ccccc5)ncnc43)[C@H](O)[C@@H]2O1`: the Hydrolysis on Phosphodiesterase 4 is below 0.05. Besides, the I50 in experiment [1] turned out to be 61 µM.

At Phosphodiesterase 4, `Nc1ncnc2c1nc(SCC(=O)[O-])n2[C@@H]1O[C@@H]2COP(=O)(O)O[C@H]2[C@H]1O.[Na+]` had a Hydrolysis below 0.05. Besides, the I50 in experiment [1] amounted to 400 µM.

For the compound `CCCCCCNc1ncnc2c1nc(SCc1ccccc1)n2[C@@H]1O[C@@H]2COP(=O)(O)O[C@H]2[C@H]1O`, at Phosphodiesterase 4, the Hydrolysis was below 0.05. In experiment [1], this compound showed an I50 of 30 µM.

In turn, `CCCCCNc1ncnc2c1nc(SCc1ccccc1)n2[C@@H]1O[C@@H]2COP(=O)(O)O[C@H]2[C@H]1O` gave a Hydrolysis on Phosphodiesterase 4 below 0.05. Moreover, the I50 in experiment [1] turned out to be 16 µM.

In turn, `CSc1ncnc2c1ncn2[C@@H]1O[C@@H]2COP(=O)(O)O[C@H]2[C@H]1O` returned a Hydrolysis on Phosphodiesterase 4 of 0.46. Moreover, in experiment [1], the I50 was determined as 80 µM.

At Phosphodiesterase 4, `CCCN(CCC)c1ncnc2c1nc(SCc1ccccc1)n2[C@@H]1O[C@@H]2COP(=O)(O)O[C@H]2[C@H]1O` showed a Hydrolysis below 0.05.

The compound `Nc1nc2c(Cl)ncnc2n1[C@@H]1O[C@@H]2COP(=O)(O)O[C@H]2[C@H]1O` had a Hydrolysis at Phosphodiesterase 4 of 0.74. The compound also returned an I50 in experiment [1] of 200 µM.

As for `Nc1ncnc2c1nc(Br)n2[C@@H]1O[C@@H]2COP(=O)(O)O[C@H]2[C@H]1O`, the Hydrolysis on Phosphodiesterase 4 is below 0.05.

`Nc1ncnc2c1nc(Sc1ccc(Cl)cc1)n2[C@@H]1O[C@@H]2COP(=O)(O)O[C@H]2[C@H]1O` came in with a Hydrolysis at Phosphodiesterase 4 below 0.05.
